Assay results reported in patent US20230265151A1, “GIP/GLP1 CO-AGONIST COMPOUNDS” (priority 2020, published 2023).
Where two headings read alike, the source gives them in different places.

Key:
Type in all cases: cell-based
hGCGR = target: T1, hGCGR (Homo sapiens, UniProt P47871); test: Functional cAMP formation (HTRF) in HEK-293 clonal cells expressing hGCGR, 0.1% bovine casein, without or with 1.0% human serum albumin
T1 construct: expressed in transfected cells
Procedure, shortened: (§1)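 Cells were stimulated with peptide for 30 min at 37° C, then intracellular cAMP was measured by competitive HTRF (665/620 nm ratio) and converted to nM using a cAMP standard curve. Relative EC50 and Emax came from four-parameter logistic fits of percent maximal response against peptide concentration.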

hGLP-1R = hGLP-1R (Homo sapiens, UniProt P43220); test: Functional cAMP formation (HTRF) in HEK-293 clonal cells expressing hGLP-1R, 0.1% bovine casein, without or with 1.0% human serum albumin; design: expressed in transfected cells; conditions: for Emax: percent of maximal response to GLP-1(7-36)NH2; for EC50: cAMP
Procedure, shortened: as §1

hGIPR = target: T2, hGIPR (Homo sapiens, UniProt P48546); test: Functional cAMP formation (HTRF) in HEK-293 clonal cells expressing hGIPR, 0.1% bovine casein, without or with 1.0% human serum albumin; conditions: for EC50: cAMP, 0.1% bovine casein (no human serum albumin), geometric mean
T2 construct: expressed in transfected cells
T2 sequence (P48546 22-466): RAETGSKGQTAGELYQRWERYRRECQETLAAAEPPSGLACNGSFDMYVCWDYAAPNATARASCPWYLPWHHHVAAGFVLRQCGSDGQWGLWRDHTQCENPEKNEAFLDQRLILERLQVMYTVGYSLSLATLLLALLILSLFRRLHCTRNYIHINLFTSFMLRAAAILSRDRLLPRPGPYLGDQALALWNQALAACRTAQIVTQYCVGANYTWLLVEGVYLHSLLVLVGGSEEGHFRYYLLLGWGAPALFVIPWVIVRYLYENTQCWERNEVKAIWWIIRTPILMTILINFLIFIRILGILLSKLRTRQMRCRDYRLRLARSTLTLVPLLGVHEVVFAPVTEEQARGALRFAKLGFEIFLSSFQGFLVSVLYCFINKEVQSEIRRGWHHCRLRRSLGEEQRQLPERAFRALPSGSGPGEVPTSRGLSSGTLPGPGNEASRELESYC
Procedure, shortened: as §1

Sequence of hGLP-1R (P43220 24-463): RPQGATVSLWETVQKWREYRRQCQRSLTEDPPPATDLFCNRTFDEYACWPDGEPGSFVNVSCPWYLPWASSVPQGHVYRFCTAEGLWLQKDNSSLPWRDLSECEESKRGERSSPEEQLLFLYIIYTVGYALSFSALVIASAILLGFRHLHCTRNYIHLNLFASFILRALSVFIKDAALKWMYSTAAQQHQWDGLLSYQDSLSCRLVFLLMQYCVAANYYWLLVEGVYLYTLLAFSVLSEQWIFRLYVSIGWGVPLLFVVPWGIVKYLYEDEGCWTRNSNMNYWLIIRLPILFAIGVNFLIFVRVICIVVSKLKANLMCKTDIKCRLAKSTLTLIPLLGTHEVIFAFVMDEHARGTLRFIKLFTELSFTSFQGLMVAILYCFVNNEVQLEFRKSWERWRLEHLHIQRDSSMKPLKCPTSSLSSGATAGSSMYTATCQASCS
T1 sequence (P47871 26-477): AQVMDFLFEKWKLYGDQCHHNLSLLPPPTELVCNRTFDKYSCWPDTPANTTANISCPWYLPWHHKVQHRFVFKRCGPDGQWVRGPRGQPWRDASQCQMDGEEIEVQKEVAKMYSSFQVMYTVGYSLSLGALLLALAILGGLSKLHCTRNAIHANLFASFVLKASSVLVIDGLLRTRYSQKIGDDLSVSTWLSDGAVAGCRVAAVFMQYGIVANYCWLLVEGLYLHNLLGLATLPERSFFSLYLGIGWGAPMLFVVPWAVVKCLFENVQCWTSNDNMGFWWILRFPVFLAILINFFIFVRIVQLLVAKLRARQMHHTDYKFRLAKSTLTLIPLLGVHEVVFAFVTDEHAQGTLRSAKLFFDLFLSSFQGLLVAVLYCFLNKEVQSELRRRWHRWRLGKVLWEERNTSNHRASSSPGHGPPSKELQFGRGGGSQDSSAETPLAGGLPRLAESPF

Row | SMILES | EC50 (hGCGR; 0.1% bovine casein and 1.0% human serum albumin, 37° C., geometric mean, read-out: hGCGR EC50, nM (SEM, n)) | EC50 (hGCGR; cAMP, incubated at 37° C., 0.1% bovine casein (no human serum albumin), geometric mean, read-out: hGCGR EC50, nM (SEM, n)) | Emax (hGLP-1R; HEK293, 0.1% bovine casein and 1.0% human serum albumin, 37° C., read-out: hGLP-1R Emax, % ± SEM) | EC50 (hGLP-1R; incubated at 37° C., 0.1% bovine casein (no human serum albumin), geometric mean, read-out: hGLP-1R EC50, nM (SEM, n)) | Emax (hGIPR; HEK293, 0.1% bovine casein and 1.0% human serum albumin, 37° C., percent of maximal response to GIP(1-42)NH2, read-out: hGIPR Emax, % ± SEM) | Emax (hGIPR; HEK293, percent of maximal response to GIP(1-42)NH2, 37° C., 0.1% bovine casein, arithmetic mean, read-out: hGIPR Emax, % ± SEM) | EC50 (hGIPR; incubated at 37° C., read-out: hGIPR EC50, nM (SEM, n)) | EC50 (hGCGR; hGCGR EC50, nM (SEM, n), cAMP, 37° C., 0.1% bovine casein (no human serum albumin), geometric mean) | EC50 (hGCGR; hGCGR EC50, nM (SEM, n), cAMP, 37° C., 0.1% bovine casein and 1.0% human serum albumin, geometric mean (SEM, n)) | Emax (hGLP-1R; HEK293, read-out: hGLP-1R Emax, % ± SEM, cAMP, 37° C., 0.1% bovine casein and 1.0% human serum albumin) | Emax (hGLP-1R; HEK293, read-out: hGLP-1R Emax, % ± SEM, cAMP, 37° C., 0.1% bovine casein, arithmetic mean) | EC50 (hGLP-1R; hGLP-1R EC50, nM (SEM, n), 37° C., 0.1% bovine casein (no human serum albumin), geometric mean) | EC50 (hGLP-1R; hGLP-1R EC50, nM (SEM, n), 37° C., 0.1% bovine casein and 1.0% human serum albumin, geometric mean (SEM, n)) | Emax (hGIPR; HEK293, read-out: hGIPR Emax, % ± SEM, cAMP, 37° C., 0.1% bovine casein and 1.0% human serum albumin, percent of maximal response to GIP(1-42)NH2) | EC50 (hGIPR; hGIPR EC50, nM (SEM, n), 37° C.)
1 | CC[C@H](C)[C@H](NC(=O)[C@H](CC(C)C)NC(=O)[C@](C)(Cc1ccc(O)cc1)NC(=O)[C@@H](CCC(=O)O)NC(=O)[C@@H](NC(=O)[C@H](Cc1ccccc1)NC(=O)CNC(=O)C(C)(C)NC(=O)[C@H](CCC(N)=O)NC(=O)[C@H](C)NC(=O)[C@H](CCCCNC(=O)COCCOCCNC(=O)COCCOCCNC(=O)CC[C@H](NC(=O)CCCCCCCCCCCCC(=O)O)C(=O)O)NC(=O)[C@H](CCCN)NC(=O)[C@H](CC(=O)O)NC(=O)[C@H](CC(C)C)NC(=O)[C@](C)(CC(C)C)NC(=O)[C@@H](NC(=O)[C@H](CO)NC(=O)[C@H](Cc1ccncc1)NC(=O)[C@H](CC(=O)O)NC(=O)[C@H](CO)NC(=O)[C@@H](NC(=O)[C@](C)(Cc1ccccc1F)NC(=O)[C@@H](NC(=O)CNC(=O)[C@H](CCC(=O)O)NC(=O)C(C)(C)NC(=O)[C@@H](N)Cc1ccc(O)cc1)[C@@H](C)O)[C@@H](C)O)[C@@H](C)CC)[C@@H](C)CC)C(=O)N[C@@H](CCC(=O)O)C(=O)NCC(=O)NCC(=O)N[C@@H](CCCCNC(=O)COCCOCCNC(=O)COCCOCCNC(=O)CC[C@H](NC(=O)CCCCCCCCCCCCC(=O)O)C(=O)O)C(=O)N[C@@H](CO)C(=O)N[C@@H](CO)C(=O)NCC(=O)N[C@@H](C)C(=O)N1CCC[C@H]1C(=O)N1CCC[C@H]1C(=O)N1CCC[C@H]1C(=O)N[C@@H](CO)C(N)=O [Example 103] | > 9950 nM | > 9950 nM | 96.9% | 2.1 nM | 94.2% | 92.8% | 0.0305 nM | – | – | – | – | – | – | – | –
2 | CC[C@H](C)[C@H](NC(=O)[C@H](CC(C)C)NC(=O)[C@](C)(Cc1ccc(O)cc1)NC(=O)[C@H](CCCCNC(=O)CCOCCOCCOCCOCCOCCNC(=O)CC[C@H](NC(=O)CCCCCCCCCOc1ccc(C(=O)O)cc1)C(=O)O)NC(=O)[C@@H](NC(=O)[C@H](Cc1ccccc1)NC(=O)[C@H](CCCN)NC(=O)C(C)(C)NC(=O)[C@H](CCC(N)=O)NC(=O)[C@H](C)NC(=O)[C@H](CCC(N)=O)NC(=O)[C@H](CCCN)NC(=O)[C@H](CC(=O)O)NC(=O)[C@H](CC(C)C)NC(=O)[C@](C)(CC(C)C)NC(=O)[C@@H](NC(=O)C(C)(C)NC(=O)[C@H](Cc1ccncc1)NC(=O)[C@H](CC(=O)O)NC(=O)[C@H](CO)NC(=O)[C@@H](NC(=O)[C@](C)(Cc1ccccc1F)NC(=O)[C@@H](NC(=O)CNC(=O)[C@H](CCC(=O)O)NC(=O)C(C)(C)NC(=O)[C@@H](N)Cc1ccc(O)cc1)[C@@H](C)O)[C@@H](C)O)[C@@H](C)CC)[C@@H](C)CC)C(=O)N[C@@H](CCCCNC(=O)CCOCCOCCOCCOCCOCCNC(=O)CC[C@H](NC(=O)CCCCCCCCCOc1ccc(C(=O)O)cc1)C(=O)O)C(=O)NCC(=O)NCC(=O)N1CCC[C@H]1C(=O)N[C@@H](CO)C(=O)N[C@@H](CO)C(=O)NCC(=O)N[C@@H](C)C(=O)N1CCC[C@H]1C(=O)N1CCC[C@H]1C(=O)N1CCC[C@H]1C(=O)N[C@@H](CO)C(N)=O [Example 469] | – | – | – | – | – | – | – | > 9950 nM | > 9950 nM | 93.8% | 111% | 0.161 nM | 2.33 nM | 82.1% | 0.0121 nM
